# Patent US9549911B2, “Ginger metabolites and uses thereof” (North Carolina A&T State University, priority 2012, dated 2017)
# Where two headings read alike, the source gives them in different places.
# What was measured:
# [1] = test system: H-1299 human lung cancer cells; assay: MTT growth inhibition of human cancer cells, 24 h (Part 1); type: cell-based; details: H-1299, 24 h, 0 to 80 μM
# Description: (§1) The reading reflected the number of viable cells and was expressed as a percentage of viable cells in the control. Both HCT-116 and H-1299 cells were cultured in McCoy's 5A medium. All of the above media were supplemented with 10% fetal bovine serum, 1% penicillin/streptomycin, and 1% glutamine, and the cells were kept in a 37° C. incubator with 95% humidity and 5% CO2.
# [2] = test system: HCT-116 human colon cancer cells; assay: as above; type: cell-based; details: HCT-116, 24 h, 0 to 80 μM
# Description: as §1
# H-1299 cells [3] = assay: TUNEL apoptosis assay (Part 1); type: cell-based, human; details: 24 h
# Description: (§2) HCT-116 and H-1299 cells were seeded in six-well plates at 1.0×10^5 cells/well and were incubated at 37° C. in a 5% CO2 incubator. After 24 h, fresh media supplemented with DMSO (control), [6]-shogaol (10 or 20 μM), M9 (40 or 80 μM), or M11 (40 or 80 μM) were added to the wells. After 24-h incubation, cells were washed and pretreated for 15 min at room temperature with a solution of 20 μg/ml proteinase K. Cells were then washed twice with PBS pH 7.4 and were fixed for 10 min at room temperature using 10% neutral formaldehyde solution. After two washes in distilled H2O, cells were resuspended in 100 μl of distilled H2O and were applied on silanized microscope slides. Slides were incubated overnight at 37° C. and were washed twice with PBS. Terminal deoxynucleotidyl transferase deoxyuridine triphosphate nick-end labeling (TUNEL) assay was then performed according to the manufacturer's protocol. Cells were observed under 400× power using a Zeiss A1 microscope (Carl Zeiss, Inc., Thornwood, N.Y.).
# (§3) Ten fields per slide were evaluated, and TUNEL-positive cells (with brown coloration in the nucleus) were expressed as a percentage of the total number of cells contained in a field. Statistical Analysis. For simple comparisons between two groups, twotailed Student's t test was used. A p value of less than 0.05 was considered statistically significant in all the tests.
# HCT-116 cells [4] = assay: TUNEL apoptosis assay (Part 1); type: cell-based, human; details: 24 h
# Description: as §2, §3
# [5] = Kinetic study of [6]-shogaol metabolism to M6 in liver microsomes; type: in vitro ADME, monkey; details: monkey liver microsomes 0.1 mg/mL, 30 min
# Description: (§4) All incubations were performed in triplicate.
# [6] = as above; type: in vitro ADME, rat; details: rat liver microsomes 0.1 mg/mL, 30 min
# Description: as §4
# [7] = as above; type: in vitro ADME, mouse; details: mouse liver microsomes 0.1 mg/mL, 30 min; read-out: Km of M6 formation
# Description: as §4
# [8] = test system: human colon cancer cells HCT-116; assay: Cell Death Detection ELISA apoptosis induction (Part 3); type: cell-based; details: HCT-116, 10 μM, 24 hours
# Description: (§5) Human colon cancer cells HCT-116 and human lung cancer cells H-1299 were plated in 96-well plates at a density of 5000 cells/well and allowed to attach overnight at 37° C. M14, M15, or [6]-shogaol in DMSO, or DMSO control, diluted in media, were added to cells and incubated for an additional 24 hours at 37° C. After 24 hours, media containing compound was removed and cells were lysed in their respective wells with reagents from a Cell Death Detection ELISA^PLUS kit from Roche Applied Science (Mannheim, Germany). Samples were harvested after cell lysates were spun down at 300 g for 10 minutes. To streptavidin coated microplates, 20 μL samples were added, and mixed with 80 μL Immunoreagent, which consisted of anti-histone-biotin, and anti-DNA-POD, and incubated with gentle shaking for 2 hours at room temperature. After incubation, Immunoreagent was removed and samples were washed 3 times with 250 μL incubation buffer. Substrate solution, ABTS, was added to each well and color was developed for 15 minutes before stopping the reaction with ABTS stop solution and reading absorbance on a microplate reader at 430 nm. Experiments were performed in triplicate and the average is given in comparison to DMSO control with standard deviation.
# [9] = test system: human lung cancer cells H-1299; assay: as above; type: cell-based; details: H-1299, 10 μM, 24 hours
# Description: as §5
# H-1299 cells [10] = assay: TUNEL apoptosis assay (Part 2); type: cell-based, human; details: H-1299, 20 or 40 μM, 24 hours
# HCT-116 cells [11] = assay: Measurement of reactive oxygen species (DCFH-DA); type: cell-based, human; details: HCT-116, 40 μM, after two hours
# Source text: The assay employed the cell-permeable fluorogenic probe 2′,7′-dichlorodihydrofluorescin diacetate [DCFH-DA] (Sigma Aldrich, St. […] In brief, DCFH-DA is diffused into cells and is deacetylated by cellular esterases to non-fluorescent 2′,7′-dichlorodihydrofluorescin (DCFH), which is rapidly oxidized to highly fluorescent 2′,7′-dichlorodihydrofluorescein (DCF) by intracellular hydrogen peroxide, or other low molecular weight peroxides. Measured fluorescence intensity is thus proportional to the amount of such peroxides in the cell at a given time. Human colon cancer cells HCT-116 or HT-29 were seeded in 96-well black-sided, clear-bottomed culture plates, with 5000 cells/well and were allowed to adhere for 24 hours in a 37° C. incubator with 5% CO2. […] After desired incubation times of 0, 2, 4, 8, or 24 hours, media and test compounds were aspirated. Cells were washed three times with 200 μL PBS before addition of 100 μL 1 mM DCF-DA. The fluorogenic probe permeated cell membranes and was processed to DCF for one hour at 37° C. After incubation, plates were immediately placed in a Biotek microplate reader to measure fluorescence at wavelengths of 485 (excitation) and 528 (emission). Raw values were normalized to DMSO control for each time point and are presented as fold induction versus 0 hour time point (n=3).
Structure (SMILES),IC50 [1],IC50 [2],"apoptotic cells (TUNEL) (H-1299 cells [3]; H-1299, 10 μM)","apoptotic cells (TUNEL) (H-1299 cells [3]; H-1299, 20 μM)","apoptotic cells (TUNEL) (HCT-116 cells [4]; HCT-116, 10 μM)","apoptotic cells (TUNEL) (HCT-116 cells [4]; HCT-116, 20 μM)",Vmax of M6 formation [5],Km ([5]; read-out: Km of M6 formation),Vmax of M6 formation [6],Km [7],induction of apoptosis compared to DMSO control [8],induction of apoptosis compared to DMSO control [9],induction of apoptosis (TUNEL) versus DMSO (H-1299 cells [10]),ROS induction (HCT-116 cells [11])
"CCCCC/C=C/C(=O)CCc1ccc(O)c(OC)c1 [[6]-shogaol, reference compound]",16.9 µM,18.7 µM,5.2%,31.6%,10.3%,31.2%,2.99+/−0.28 nanomoles per minute per milli,424 µM,8.19+/−0.48 nanomoles per minute per milli,75.7 µM,1 fold,~2 fold,–,–
"CCCCCC(CC(=O)CCc1ccc(O)c(OC)c1)SC[C@H](N)C(=O)O (some centres unmarked) [M2, 5-cysteinyl-[6]-shogaol]",–,–,–,–,–,–,–,–,–,–,–,–,Apoptosis was observed,greater than 2 fold
